{
  "source": "patent US11510964B2",
  "about": "“Macrocyclic peptides to decrease c-Myc protein levels and reduce cancer cell growth” (University of Kansas, priority 2017, dated 2022)",
  "key": {"[1]": {"conditions": "mice, after systemic administration; cited from earlier work"}, "[2]": {"system": "PC-3 cells", "type": "cell-based, human", "conditions": "48 h, read-out: IC50, cell growth", "protocol": "Human prostate cancer PC-3 cells were cultured and maintained in EMEM (ATCC), non-prostate HEK (human embryonic kidney) cells were cultured in DMEM, human prostate cancer DU145, LNCaP, 22Rv1 cells were cultured in RPMI 1640 (ATCC), and normal BPH-1 prostate cells and prostate cancer C4-2 cell line were cultured in RPMI 1640 (ATCC), all containing 10% fetal bovine serum (Atlanta Biologicals) and 1% penicillin/streptomycin (Invitrogen). Cells were grown at 37° C. in humidified air with 5% CO2 and passaged every fourth to fifth day following trypsinization with trypsin/EDTA (Invitrogen).^16\nPC-3, LNCaP, DU 145, 22Rv1, C4-2, BPH-1, and HEK cells were grown to a density of 2000 cells/well in 96 well plates and treated with [D-Trp]CJ-15,208 or other peptides for 24-72 h in duplicate. Media containing [D-Trp]CJ-15,208 was changed every 24 h. The proliferation of treated cells was determined using the cell proliferation reagent WST-1 (Roche) per the manufacturer's instructions and compared to […] control cells in 1% DMSO in media. After treatment with compound 10 μL of the reagent was added to the well in 100 μL culture media, and the cells incubated at 37° C. for 30 min. The absorbance of the media in each well was measured at […] using a plate reader (BioTek). The percentage cell proliferation was normalized to vehicle treated control cells calculated as: (mean absorbance of sample/mean absorbance of control cells)×100.^38\nEach experiment was performed in triplicate unless otherwise stated in the figure legend. GraphPad Prism 5 was used to determine IC50 values. Data represent the mean value+/−SEM. Compound vs. vehicle treated cells in the cell cycle phase and apoptosis experiments (FIGS. 5-8) were compared using the student's t-test, with a two-tailed, unpaired method, using the Prism software. The effects of compound vs. vehicle treatment on protein levels (FIG. 10) were evaluated by one-way ANOVA with Dunnett's test for multiple comparisons."}, "[3]": {"system": "c-Myc protein levels in PC-3 cells", "experiment": "Western blot analysis of cellular c-Myc protein levels", "type": "cell-based, human", "protocol": "Cells were seeded in 6 well plates at a density of 1×10^5 cells/well and grown to 75% confluence. Cells were treated with [D-Trp]CJ-15,208 at the indicated concentrations. Cells were then harvested as described above, and the cell pellets lysed in RIPA buffer consisting of 10 mM Tris HCl, pH 8.0, 150 mM NaCl, 1 mM EDTA, 1% Triton-X-100, 0.1% SDS, 1% sodium deoxycholate, and a protease inhibitor cocktail #P8340 (Sigma). Cell lysates were centrifuged at 13×1000 rpm for 15 min and the supernatants collected. The total protein concentration was measured in cell lysates using the standard Bradford assay. SDS gel electrophoresis was performed using 4-20% polyacrylamide gel (BioRad). Western blot analysis was performed using the following antibodies: i) c-Myc #5605 (rabbit monoclonal, 1:2000 dilution, (Cell Signaling Technologies)); actin #A2228 (mouse monoclonal, 1:5000 dilution (Sigma)), PP2A #610555 (mouse monoclonal 1:5000 dilution, BD Biosciences), p-PP2A #1155-1 (rabbit polyclonal, 1:5000 dilution (Epitomics)), Erk #9107 (mouse monoclonal, 1:2000 dilution (Cell Signaling Technologies) and p-Erk #4376 (rabbit monoclonal, 1:2000 (Cell Signaling Technologies)); Akt #2920 (mouse monoclonal, 1:2000 dilution (Cell Signaling Technologies)), p-Akt #4056 (rabbit monoclonal, 1:2000 (Cell Signaling Technologies)). The secondary antibodies, goat-anti-mouse #116-035-003 and goat-anti-rabbit #111-035-003, were obtained from Jackson ImmunoResearch Laboratory. Signal densities of the protein bands were determined using ImageJ software (NIH) and normalized to the internal loading control (actin)."}, "[4]": {"conditions": "cited from earlier work"}, "[5]": {"conditions": "mice, dose of 60 mg/kg; cited from earlier work"}},
  "note": "Non-standard residues stand in square brackets, D forms with d. Residues, ends and D or L forms follow the SMILES beside them.",
  "data": [
    {"compound": "O=C1N[C@@H](Cc2ccccc2)C(=O)N2CCC[C@@H]2C(=O)N[C@@H](Cc2ccccc2)C(=O)N[C@H]1Cc1c[nH]c2ccccc12", "note": "[CJ-15,208, cyclo[Phe-D-Pro-Phe-Trp]] (cyclo(FWF[dP]))", "values": [
      {"measurement": "blood-brain barrier penetration", "setting": "[1]", "result": "appear to penetrate the blood-brain barrier"},
      {"measurement": "IC50", "setting": "[2]", "result": "10.1 ± 0.9", "unit": "µM"},
      {"measurement": "decrease of cellular c-Myc protein levels", "setting": "[3]; 50 μM (FIG. 1E lanes 4 and 5)", "result": 5, "unit": "fold"},
      {"measurement": "reduction of c-Myc protein levels", "setting": "[3]; PC-3 cells, 10 μM, 48 h", "result": "approximately 50%"},
      {"measurement": "activity after oral administration", "setting": "[4]", "result": "active after oral administration"},
      {"measurement": "toxicity", "setting": "[5]", "result": "no evidence of toxicity"}
    ]},
    {"compound": "C=CCN1CC[C@]23c4c5ccc(O)c4O[C@H]2C(=O)CC[C@@]3(O)[C@H]1C5", "note": "[naloxone, reference compound]", "values": [
      {"measurement": "effect on the decrease in c-Myc protein levels caused by [D-Trp]CJ-15,208", "setting": "[3]; PC-3 cells, 10 μM naloxone with 10 μM [D-Trp]CJ-15,208 (FIG. 1F lane 4 vs. lane 2)", "result": "did not alter the decrease"},
      {"measurement": "effect on c-Myc protein levels", "setting": "[3]; PC-3 cells, 10 μM, 48 h (FIG. 1F lane 3)", "result": "no effect"}
    ]},
    {"compound": "CC[C@H](C)[C@@H]1NC(=O)[C@H](CCCNC(=N)N)NC(=O)[C@@H](NC(=O)[C@H](Cc2ccccc2)NC(=O)CNC(=O)CNC(=O)[C@H](Cc2ccc(O)cc2)NCc2ccccc2)CC(=O)NC[C@@H](C(=O)N[C@@H](CCCNC(=N)N)C(=O)N2CCC[C@H]2C(=O)N[C@@H](CCCCN)C(N)=O)NC1=O", "note": "[zyklophin, reference compound]", "values": [
      {"measurement": "effect on cellular c-Myc protein levels", "setting": "[3]; 10 μM (FIG. 1E lane 3)", "result": "not decreased"}
    ]},
    {"compound": "dynorphin A-(1-13) (YGGFLRRIRPKP) [reference compound]", "values": [
      {"measurement": "effect on cellular c-Myc protein levels", "setting": "[3]; 1 μM (FIG. 1E lane 2)", "result": "not decreased"}
    ]}
  ]
}
